Active and inactive are the calls of the source. No cut-off for these calls is given here.
How the values were obtained:
[1] = test system: MTC-SK; assay: Antiproliferative activity against human MTC-SK cells at 10 uM after 72 hrs by WST-1 assay; type: functional, cell-based
[2] = Cytotoxicity against human HF-SAR cells assessed as decrease in cell viability at 10 uM after 72 hrs by WST-1 assay; type: cell-based
[3] = test system: Nucleic Acid; assay: Binding affinity to calf thymus DNA assessed as change in melting temperature; type: nucleic-acid assay; settings: Bos taurus
[4] = (§1) Antiproliferative activity against human KRJ-I cells after 72 hrs by WST-1 assay; type: functional, cell-based
[5] = test system: KRJ-I; assay: as §1; type: functional, cell-based
[6] = (§2) Cytotoxicity against human KRJ-I cells assessed as decrease in cell viability after 72 hrs by WST-1 assay; type: functional, cell-based
[7] = test system: KRJ-I; assay: as §2; type: functional, cell-based
[8] = Cytotoxicity against human MTC-SK cells assessed as induction of protease activity at 10 uM after 72 hrs by luminescence based assay; type: functional
[9] = (§3) Cytotoxicity against human MTC-SK cells assessed as decrease in cell viability at 10 uM after 72 hrs by WST-1 assay; type: functional
[10] = test system: MTC-SK; assay: as §3; type: functional
[11] = test system: KRJ-I; assay: Antiproliferative activity against human KRJ-I cells at 10 uM after 72 hrs by WST-1 assay; type: functional, cell-based
[12] = (§4) Cytotoxicity against human MTC-SK cells assessed as decrease in cell viability after 72 hrs by WST-1 assay; type: functional, cell-based
[13] = test system: MTC-SK; assay: as §4; type: functional, cell-based
[14] = (§5) Cytotoxicity against human KRJ-I cells assessed as decrease in cell viability at 10 uM after 72 hrs by WST-1 assay; type: functional
[15] = test system: KRJ-I; assay: as §5; type: functional
[16] = test system: KRJ-I; assay: Cytotoxicity against human KRJ-I cells assessed as induction of protease activity at 10 uM after 72 hrs by luminescence based assay; type: functional, cell-based
[17] = (§6) Antiproliferative activity against human MTC-SK cells after 72 hrs by WST-1 assay; type: functional, cell-based
[18] = test system: MTC-SK; assay: as §6; type: functional, cell-based
[19] = Antiproliferative activity against human HF-SAR cells at 10 uM after 72 hrs by WST-1 assay; type: cell-based
[20] = test system: Nucleic Acid; assay: Binding affinity to oligonucleotide d(CGTACG)2 by DNA intercalation assay; type: nucleic-acid assay

SMILES	Activity [1]	Activity [2]	Activity [3]	IC50 [4] [µM]	Activity [5]	IC50 [6] [µM]	Activity [7]	Activity [8] [%]	Activity [9] [%]	Activity [10]	Activity [11]	IC50 [12] [µM]	Activity [13]	Activity [14] [%]	Activity [15]	Activity [16]	IC50 [17] [µM]	Activity [18]	Activity [19]	Activity [20]
C[n+]1ccc(-c2c3nc(c(-c4cc[n+](C)cc4)c4ccc([nH]4)c(-c4cc[n+](C)cc4)c4nc(c(-c5ccc(-c6cn(S(=O)(=O)c7ccccc7)c7ccccc67)cc5)c5ccc2[nH]5)C=C4)C=C3)cc1.[Cl-].[Cl-].[Cl-]	Active	Not Active	Active	10	Dose-dependent effect	10	Dose-dependent effect	64	74	Active	Active	10	Dose-dependent effect	37	Active	inactive	10	Dose-dependent effect	Active	–
C[n+]1ccc(-c2c3nc(c(-c4cc(-c5ccc6c(c5)C(C)(C)c5ccccc5-6)c[n+](C)c4)c4ccc([nH]4)c(-c4cc[n+](C)cc4)c4nc(c(-c5cc(-c6ccc7c(c6)C(C)(C)c6ccccc6-7)c[n+](C)c5)c5ccc2[nH]5)C=C4)C=C3)cc1.[Cl-].[Cl-].[Cl-].[Cl-]	Active	Not Active	Active	22.7	Dose-dependent effect	22.7	Dose-dependent effect	46	91	Active	Active	22.7	Dose-dependent effect	95	Active	inactive	22.7	Dose-dependent effect	Active	Active
C[n+]1ccc(-c2c3nc(c(-c4cc[n+](C)cc4)c4ccc([nH]4)c(-c4cc(-c5ccc6c(c5)C(C)(C)c5ccccc5-6)c[n+](C)c4)c4nc(c(-c5cc[n+](C)cc5)c5ccc2[nH]5)C=C4)C=C3)cc1	–	–	–	–	–	–	–	–	–	–	–	–	–	–	–	–	–	–	–	Active
